Ends that are not written are not given here.
Key:
[1] = system: Ser585 phosphorylation of βc in CTL-EN cells; assay: Ser585 phosphorylation of βc in CTL-EN cells expressing IL-3Ra and wtβc, immunoblot; type: cell-based
Source text: (§1) The βc was immunoprecipitated and then subjected to immunoblot analysis using the anti-phospho-Ser585βc antibody. […] Immunoprecipitates were electrophoresed on a polyacrylamide gel and the amount of radiolabelled receptor immunoprecipitated was quantified using a phosphorImager.
(§2) After various treatments, cells were lysed, βc was immunoprecipitated, and subjected to immunoblot analysis with the anti-phospho-Ser585 antibody.

[2] = system: Ser585 phosphorylation of βc in MO7e cells; assay: Ser585 phosphorylation and 14-3-3 recruitment in MO7e cells; type: cell-based; details: 30 μM H89 for 15 minutes prior to IL-3
Source text: as §1, §2

[3] = system: anti-phospho-585Ser recognition of βc; assay: Western blot of immunoprecipitated βc with peptide-preincubated anti-phospho-585Serβc antibody; type: binding, human; details: 100 fold molar excess of peptide
Procedure: (§3) Lysates of HEK293T cells transfected with wild type βc were immunoprecipitated with anti-βc antibody (MAb 8E4). Immunoprecipitates were run on 7.5% SDS-PAGE under reducing conditions. […] M1 cells expressing GM-CSFRa and βc were either untreated (−) or stimulated with GM-CSF (2 ng/ml) for 30 seconds (+). Lysates of the M1 cells were immunoprecipitated with anti-βc antibody (MAb 8E4) and the immunoprecipitates run on 10% SDS-PAGE under reducing conditions.
These possibilities were initially addressed using ^32P-orthophosphate labelled HEK 293T cells transfected with the GM-CSF receptor (α and βc subunits). These cells were stimulated with GM-CSF, total βc was immunoprecipitated and examined for ^32P-labelling. This is most likely due to the presence of sixty serine and threonine residues in the intracellular region of βc, some of which may be constitutively phosphorylated.

[4] = molecular target: T1, PKA (Homo sapiens, UniProt P17612); assay: In vitro kinase assay, PKA phosphorylation of hisβc445-881 with peptide competition; type: biochemical; details: 200 mM peptides
T1 construct: substrate Hisβc445-881 expressed in bacteria
Procedure: Peptide competitions were also performed using 200 mM peptides containing the indicated sequences. b) The ability of PKA and CKII to phosphorylate Ser585 of hisβc445-881 was examined by immunoblot analysis using the anti-phospho-Ser585βc antibodies. Filters were probed firstly with anti-phospho-Ser585βc antibodies (top panel). […] Cells were then lysed and βc immunoprecipitated with 1C1. Ser585 phosphorylation of βc was determined using the anti-phospho-Ser585 antibodies (top panel). The filter was then stripped and re-probed with anti βc 1C1 antibodies.
In an effort to identify the kinase involved in the phosphorylation of Ser585, we firstly examined the ability of several kinases to phosphorylate the purified recombinant intracellular portion of βc (hisβc445-881) in vitro. Ser585 of βc lies within a SXXD motif which is known to be a CKII consensus phosphorylation site. Ser585 also lies within a RS motif which is a possible, but poor, PKA phosphorylation site. […] Additional bands for the PKA kinase reactions were evident due to the autocatalytic activity of PKA. […] In this experiment, the non-phospho-HSRSLP peptide is likely to act as a competitive substrate for phosphorylation of Ser585 of hisβc445-881 by PKA. […]

[5] = system: interaction of hisβc445-881 with p85 and 14-3-3; assay: PKA-phosphorylated hisβc445-881 Sepharose pull-down from COS-7 lysates with peptide competition; type: binding; details: 200 mM competing peptides, 1 hour at 4° C.
Procedure: (a) analysis of PI 3-kinase activity. […] Cells were then lysed and phospho-tyrosine containing proteins were immunoprecipitated (2×10^7 cells/IP) using the 4G10 antibody. Immunoprecipitates were washed in 1× PI 3-kinase buffer (20 mM HEPES, pH 7.5, 5 mM MgCl2, 1 mM EGTA) and PI 3-kinase activity was analysed in a lipid kinase assay using phosphatidyl inositol and g^32PATP as substrates as described in the “Materials and Methods”. Autoradiogram of TLC plate is shown with ^32P-labelled phosphatidyl inositols (PIP) and the origin indicated. […] (b) CTL-EN cells were also examined for the association of βc with p85. […] Cells were then lysed and the βc immunoprecipitated (2×10^7 cells/IP) with the 1C1 anti-βc specific mAb. Immunoprecipitates were then subjected to SDS-PAGE, transferred to nitrocellulose and immunoblotted with anti-p85 (1 mg/ml) followed by detection with HRP-conjugated anti-rabbit IgG antibody and ECL. The filters were then stripped, probed with anti-SHP2 (1 mg/ml), stripped again and finally probed with 1C1 anti-βc (2 mg/ml). […] The association of hisβc445-881 with p85 was also assessed in pull-down experiments together with peptide competition. (c) List of peptides used in the hisbβc445-881 pull-down experiment. S refers to a phospho-serine residue. […]

[6] = molecular target: T2, βc association with 14-3-3ζ (Homo sapiens, UniProt P63104); assay: GST-14-3-3-sepharose precipitation of βc from transfected HEK293T lysates with peptide competition; type: binding; details: for inhibition of βc association with GST-14-3-3 in pull-down: peptides 100 uM
T2 construct: expressed in transfected cells; host or cells: HEK293T (βc)
T2 sequence (P63104 1-245): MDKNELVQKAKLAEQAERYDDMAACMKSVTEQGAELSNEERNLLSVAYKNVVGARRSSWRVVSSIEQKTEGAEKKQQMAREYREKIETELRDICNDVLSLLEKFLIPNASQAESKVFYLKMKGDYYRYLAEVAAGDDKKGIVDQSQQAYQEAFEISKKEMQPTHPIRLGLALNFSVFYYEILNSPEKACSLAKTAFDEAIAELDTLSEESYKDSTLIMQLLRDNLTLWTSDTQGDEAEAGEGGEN
Procedure: Lysates of HEK293T cells transfected with βc were immunoprecipitated with GST-14-3-3-sepharose in the absence or in the presence of chemically-synthesised peptides (100 uM) containing a βc sequence ([…]) or a Raf-1 sequence ([…]). In the phosphorylated peptides the relevant phosphorylated serine is underlined. The experiment was performed on 7.5% SDS-PAGE under reducing conditions. The presence of βc in the precipitation experiment was determined by Western blotting with anti-βc antibody (MAb 1C1).
Lysates of HEK293T cells transfected with βc were precipitated with GST-14-3-3-sepharose in the absence or in the presence of various concentrations of chemically-synthesised peptides. […] The appropriate phosphorylated serine in each peptide is underlined. The experiment was performed on 7.5% SDS-PAGE under reducing conditions. The presence of βc in the immunoprecipitates was determined by Western blotting with anti-βc antibody (MAb 1C1).
Cells were lysed in lysis buffer for 30 mins at 4° C. followed by centrifugation of the lysate for 15 mins at 12,000 g 4° C. […] Samples were boiled for 5 mins in SDS sample load buffer in the presence of 2-mercaptoethanol before separating precipitated proteins by SDS-PAGE.
Cell lysates were precipitated or immunoprecipitated in the presence of various concentrations of the following peptides: βc peptide sequence […] either non phosphorylated or serine phosphorylated and a scrambled peptide […]. Raf1 peptides corresponding to the sequence […] were also used and were either non phosphorylated or serine phosphorylated. The corresponding phosphorylated serine in each peptide is underlined. Peptides were synthesised by Chiron Mimotopes, Melbourne, Australia. The presence of βc in either the immunoprecipitation or precipitation experiment was determined by Western blotting with anti-βc antibody (MAb 1C1).

[7] = system: TF-1; assay: TF-1 proliferation assay; type: cell-based; details: recombinant human cytokine produced in E. coli
Procedure: Acad. Sci., 91, 5838. Cytokine purity and quantitation was determined by HPLC analysis and Coomasie staining of SDS-PAGE separated proteins.

[8] = system: 585Ser phosphorylation of βc in M1 myeloid leukaemic cells; assay: 585Ser phosphorylation of βc in M1 cells, immunoblot; type: cell-based; details: 2 ng/ml GM-CSF
Procedure: as §3

[9] = system: CC[C@H](C)[C@H](NC(=O)[C@H](CC(=O)O)NC(=O)[C@@H]1CCCN1C(=O)[C@H](CC(C)C)NC(=O)[C@H](CO)NC(=O)[C@H](CCCNC(=N)N)NC(=O)[C@H](CO)NC(=O)[C@H](Cc1c[nH]cn1)NC(=O)[C@@H]1CCCN1C(=O)[C@@H]1CCCN1C(=O)CNC(=O)[C@H](CC(C)C)NC(=O)[C@@H](N)CS)C(=O)N[C@@H](CC(C)C)C(=O)NCC(=O)O; assay: purified protein, by the assay type; details: other: peptide as PKA substrate, hyperbolic regression analysis; 21.0 °C

For O=S(=O)(NCCNC/C=C/c1ccc(Br)cc1)c1cccc2cnccc12 [H89], the “effect on IL-3 induced phosphorylation of Ser585” value ([1]; 30 μM H89 for 15 minutes prior to IL-3) was “significantly reduced the IL-3 induced phosphorylation of Ser585” and the “effect on IL-3 induced phosphorylation of Ser585” value [2] was “significantly reduced the IL-3 induced phosphorylation of Ser585”.
CCCC(=O)Nc1ncnc2c1ncn2[C@@H]1O[C@@H]2COP(=O)(O)O[C@H]2[C@H]1OC(=O)CCC [db-cAMP, dibutyryl cAMP] was tested, and the “Ser585 phosphorylation of βc after stimulation” value ([1]; 50 ng/ml IL-3, 50 μM forskolin or 100 μM dibutyryl cAMP) was “increased Ser585 phosphorylation”.
CLPLSGPDSHIRGPL [scrambled peptide] was tested, and the “inhibition of anti-phospho-585Ser recognition of βc” value [3] was “did not”, the “effect on phosphorylation of hisβc445-881 by PKA” value [4] was “did not” and the “effect on interaction of p85 with hisβc445-881” value [5] was “had no apparent effect on this interaction”.
For “CLSQRQRSTSTPNVHM [nonphosphorylated Raf-1 peptide]”, the “inhibition of βc association with GST-14-3-3 in pull-down” value [6] was “did not”.
“CLSQRQRSTSTPNVHM [serine phosphorylated Raf-1 peptide] (also: serine phosphorylated, position not given here)” was tested, and the “inhibition of βc association with GST-14-3-3 in pull-down” value [6] was “able to inhibit βc association with 14-3-3”.
With CPLSLRSKPSPGPGP the “inhibition of βc association with 14-3-3, dose dependence and specificity” value ([6]; various concentrations of peptides (FIG. 8)) was “failed to inhibit this association”.
For “GM-CSF: recombinant human GM-CSF produced in E. coli”, the “ED50 in TF-1 proliferation assay” value [7] was 0.03 ng/mL and the “585Ser phosphorylation of βc” value [8] was “strongly upregulated ^585Ser phosphorylation of βc”.
PKA (Homo sapiens) was tested, and the Km [9] was 376 µM and the Vmax [9] was 250 nmol/min/mg.
